Measured values as given in patent publication US8318446B2, “DNA-damage-induced proteolysis” (California Institute of Technology, priority 2008, dated 2012).
Where two headings read alike, the source gives them in different places.

Experiments:
endogenous Htt = assay: Etoposide-induced Htt proteolysis in MESC2.10 neurons, Western blotting with anti-Htt mAb 2166; assay type: cell-based, human; details: for effect on etoposide-induced Htt proteolysis: pre-incubation 1 hr prior to 10 μM etoposide, sodium salicylate 5 mg/ml, caspase inhibitors 20 μM
Excerpt: Extracts were examined for Htt by Western blotting. […] Fold changes for full-length Htt levels were obtained by measuring the band intensity in each lane, normalized to tubulin and compared to non-treated control.
EGFP-lentivirus was used a control (C). […] Second and third panels show staining for Bcl-xL and pro-caspase-3, respectively. IKKγ levels were used as a loading control.
(§1) Neurons were harvested and separated into cytoplasmic and nuclear fractions using the NE-PER kit (PIERCE) according to instructions. For most experiments, ˜120 μg of lysate were used for SDS-PAGE and Western blotting with the indicated antibodies. Reactive bands in Western blots were detected by enhanced chemiluminescence (ECL) using a gel documentation system.

IKKα [1] = assay: Activation of IKKα in MESC2.10 neurons expressing Flag-tagged IKKα, immune kinase assay; assay type: cell-based, human; details: neurons starved for growth factors 8 hours; IGF-1 20 ng/ml, netrin 100 ng/ml
Experimental: IGF-1 was added at 20 ng/ml for the indicated time.
Netrin was added at 100 ng/ml for the indicated time.
The ability of a molecule to increase IKKα activation can be measured using assays that are well known in the art. For example and without limitation, IKKα activators can be identified using immune kinase assays and gene reporter assay. In an example of immune kinase assays, MESC2.10 neurons engineered to express a Flag-tagged IKKα are starved for growth factors for 8 hours. Candidate IKKα activators are added, respectively, to the starved MESC2.10 neurons for desired period of time. Neurons are harvested and cytoplasmic extracts are used to immunoprecipitate IKKα using agarose beads coupled to anti-Flag antibody. Complexes are assayed for the ability to phosphorylate a recombinant substrate GST-IκBα in the presence of radioactive […]. Products are examined by SDS-PAGE followed by autoradiography.
MESC2.10 neurons engineered to express a Flag-tagged IKKα were starved for growth factors for 8 hours. 20 ng/ml insulin-like growth factor-1 (IGF-1) and 100 ng/ml netrin were added, respectively, to the starved MESC2.10 neurons for the indicated time. […] Fold changes of IKK activity were quantified by measuring the band intensity using Image J, and compared to non-treated neurons.

IKKβ = molecular target: T1, IKKβ (Homo sapiens, UniProt O14920); details: cited from earlier work
T1 sequence (O14920 1-756): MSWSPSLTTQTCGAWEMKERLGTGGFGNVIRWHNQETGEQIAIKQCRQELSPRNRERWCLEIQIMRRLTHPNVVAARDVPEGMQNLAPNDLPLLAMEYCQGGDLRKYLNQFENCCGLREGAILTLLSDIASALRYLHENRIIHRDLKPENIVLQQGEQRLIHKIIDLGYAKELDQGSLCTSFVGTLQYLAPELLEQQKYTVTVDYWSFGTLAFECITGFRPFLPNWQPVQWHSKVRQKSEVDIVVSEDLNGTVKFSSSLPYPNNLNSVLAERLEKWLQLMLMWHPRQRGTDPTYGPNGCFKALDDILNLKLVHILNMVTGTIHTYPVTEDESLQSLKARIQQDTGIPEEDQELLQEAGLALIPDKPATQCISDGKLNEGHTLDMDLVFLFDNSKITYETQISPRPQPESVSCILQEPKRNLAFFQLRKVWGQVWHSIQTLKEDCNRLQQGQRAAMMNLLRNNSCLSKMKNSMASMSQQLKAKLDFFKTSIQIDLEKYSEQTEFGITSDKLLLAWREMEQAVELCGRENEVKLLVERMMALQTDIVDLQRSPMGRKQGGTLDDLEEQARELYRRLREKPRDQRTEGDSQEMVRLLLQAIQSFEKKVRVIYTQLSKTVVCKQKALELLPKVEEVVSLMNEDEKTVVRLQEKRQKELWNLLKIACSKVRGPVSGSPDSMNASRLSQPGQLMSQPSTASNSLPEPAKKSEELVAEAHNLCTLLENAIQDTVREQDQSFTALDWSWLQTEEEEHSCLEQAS

caspase-3 [2] = assay type: cell-based, human; details: etoposide 6 hrs; DEVD-p-nitroanaline substrate; sodium salicylate 5 mg/ml 1 hour prior
Bcl-xL [3] = details: Hdh^Q111/Q111 neurons; NaSal 5 mg/ml 1 hour prior to 10 μM etoposide
Experimental: as §1

caspase-6 [4] = assay type: cell-based, human; details: etoposide 6 hrs; VEID-p-nitroanaline substrate; sodium salicylate 5 mg/ml 1 hour prior
Bcl-xL [5] = assay: Bcl-xL level in extracts of MESC2.10 neurons, Western blotting; assay type: cell-based, human
Excerpt: FIG. 6A is a western blot showing the expression of Bcl-XL. Extracts of control and etoposide-treated MESC2.10 neurons were examined for Bcl-xL by Western blotting. […] Fold changes were normalized to the intensity of loading control, and compared to that of untreated control neurons (lane 5).

Htt = assay: γ-irradiation-induced Htt cleavage in MESC2.10 neurons; assay type: cell-based, human; details: 5 Gy, 6 hours; sodium salicylate 5 mg/ml 1 hour prior to irradiation
Experimental: Cells were irradiated with 5 Gy and further incubated for the indicated time. Sodium salicylate (NaSal, lane 5) was added at a concentration of 5 mg/ml 1 hour prior to irradiation and incubated for 6 hours. […] Lanes 7 and 8 represent MESC2.10 neurons transduced with an IKKβ shRNA lentivirus (FIG. 4A) and irradiated with 5 Gy and incubated for 6 hours. […] Tubulin was used as a loading control
To confirm that Htt cleavage is induced by DNA damage and not other, secondary effects of etopoisde, we examined whether DNA damage induced by γ-irradiation of neurons could have a similar effect on Htt cleavage. […] The difference may be due to rapid induction of double stranded DNA breaks by irradiation.

recombinant IKKβ = recombinant IKKβ (Homo sapiens, UniProt O14920); details: full-length Bcl-xL, 32P-γ-ATP, 30 min at 30° C.
Experimental: Active recombinant IKKα or IKKβ were tested for the ability to phosphorylate Bcl-xL. The kinase assay was performed using recombinant Bcl-xL as a substrate. Products were visualized by autoradiography. IκBα was used as a positive control substrate for IKKα.
(§2) To determine IKKα activity, lyastes were first depleted of IKKβ complexes using 4 μg of anti-IKKγ and anti-IKKβ antibodies coupled to protein G. The depleted lysates were used to isolate IKKα complexes with 2 μg of anti-IKKα antibody. GST-IκBα was used as a substrate to measure kinase activity. To examine whether IKKs phosphorylate Bcl-xL, 0.5 μg of either IKKα or IKKβ were incubated with 1 μg of full-length Bcl-xL in the presence of 32P-γ-ATP for 30 min at 30° C. GST protein was used as a negative control. All kinase products were examined by SDS-PAGE and autoradiography.
The possibility that activated IKKβ phosphorylates Bcl-xL was tested. To avoid contamination with other neuronal kinases that may co-immunoprecipitate with IKKβ, recombinant IKKs were used for in vitro kinase assays with Bcl-xL as the substrate.

p65 NF-κB = p65 NF-κB binding to consensus DNA oligonucleotides, nuclear extracts of MESC2.10 neurons; assay type: cell-based, human; details: etoposide
Experimental: Lanes 1-4 show p65 binding from nuclear extracts of control and lanes 5-8 show p65 binding from neurons transduced with a lentivirus expressing IKKα (FIG. 3C).
Wells with mutated NF-κB DNA oligonucleotides were used to ensure specificity of the binding (column 4).
Nuclear extracts for control or etoposide-treated MESC2.10 neurons were obtained using the cell fractionation kit from pierce according to the instructions provided. Fifty μg of each nuclear extract was incubated for an hour at room temperature on 96 well plates coated with consensus NF-κB oligonucleotides (p65 or p52). Mutated NF-κB oligonucleotides were used to confirm binding specificity. For competition assays, nuclear extracts were pre-incubated with NF-κB oligonucleotides for 1 hour on ice and then added to the coated wells. After washing, each well was incubated with anti-p65 or anti-p52 antibodies for 30 min at 37° C. Wells were washed, followed by incubation with a secondary antibody conjugated to HRP. TMB (3,3′,5,5′-tetramethylbenzidine) was added for 10 min. Binding was measured in a microplate reader at 655 nm.

[6] = test system: full-length, mutant Htt protein; assay: Etoposide-induced proteolysis of mutant Htt in striatal Hdh^Q111/Q111 neurons; assay type: cell-based, mouse; details: 10 μM etoposide for 6 hours
Excerpt: Processing of samples was as described in FIG. 3A. […] IKKγ was used as loading control.

p53 = assay: Nuclear p53 in MESC2.10 neurons, western blotting; assay type: cell-based, human; details: etoposide
Excerpt: Nuclear extracts from MESC2.10 neurons were examined for the presence p53 by western blotting. Lanes 1-4 are nuclear extracts from MESC2.10 neurons with EGFP and lanes 5-8 are from neurons that were transduced with IKKα lentiviruses (FIG. 3C). Staining with anti-lamin B1 was used to ensure equal loading (bottom panel).

caspase-3 [7] = molecular target: T2, caspase-3 (Homo sapiens, UniProt P42574); assay type: cell-based; details: MESC2.10 neurons, 6 hrs of etoposide treatment, western blot
T2 construct: Fifty μg of each lysate was incubated with either caspase-3 substrate (DEVD conjugated to p-nitroanaline); endogenous in cells; host or cells: differentiated MESC2.10 human neurons (lysates)
T2 sequence (P42574 1-277): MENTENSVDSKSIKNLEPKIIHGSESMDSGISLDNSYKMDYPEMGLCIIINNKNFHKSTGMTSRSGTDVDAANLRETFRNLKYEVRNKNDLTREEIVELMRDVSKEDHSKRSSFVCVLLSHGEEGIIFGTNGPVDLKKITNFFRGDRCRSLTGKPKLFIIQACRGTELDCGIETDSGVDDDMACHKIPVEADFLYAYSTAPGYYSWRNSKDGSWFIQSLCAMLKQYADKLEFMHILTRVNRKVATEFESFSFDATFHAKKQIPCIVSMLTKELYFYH

IKKα [8] = assay: IKKα protein level in MESC2.10 neurons, western blot; assay type: cell-based, human
Excerpt: Lysates were first treated with a combination of anti-IKKβ and IKKγ antibodies coupled to agarose beads to deplete IKKγ/IKKβ/IKKα complex. […] Fold changes of IKK activity were quantified by measuring the band intensity using Image J, and compared to non-treated neurons.
FIG. 3C is a western blot showing IKKα levels in the control and IKKα-expressing neurons. MESC2.10 neuroblasts were transduced with an IKKα recombinant lentivirus and differentiated as described below. EGFP lentivirus was used as a control.
IKKα was cloned into the lentiviral FUGW vector under the control of a ubiquitin promoter. An EGFP-lentivirus was used as a control. The Bcl-xL cDNA was cloned from MESC2.10 neurons by RT-PCR using standard procedures and its identity confirmed by sequencing. The cDNA was subsequently inserted into FUGW lentiviral vector. The shRNAs for IKKβ were cloned in a lentiviral backbone. Lentiviruses were produced by transfection of 293 cells using calcium phosphate precipitation. Supernatants of virus-producing cells were harvested 48 hr post-transfection and concentrated on Amicon Ultra columns. An EGFP virus was used as a control to monitor viral titer. A multiplicity of infection of 4:1 was used to infect MESC2.10 neuroblasts. Expression of IKKα, Bcl-xL and reduction of IKKβ were determined by Western blotting.

MESC2.10 neurons = assay: BrdU incorporation (cell cycle activation) in MESC2.10 neurons; assay type: cell-based, human; details: Day 6 differentiated neurons, 10 μM etoposide 4 hours, BrdU 1 mM
Experimental: BrdU incorporation was detected described in M&M. Image was captured with a confocal microscope.
BrdU (1 mM) was added and incubated for additional 2 hours. Cells were fixed in 5% paraformaldehyde followed by permeabilization in 70% methanol in PBS at −20° C. overnight. To denature chromatin, coverslips were immersed in 2 N HCl for 30 minutes at 37° C. and neutralized in 0.1 M borate buffer (pH 8.5) by washing 2 times for 5 minutes. To detect BrdU incorporation, coverslips were incubated with Rat-anti-BrdU (1:200). Anti-Tuj-1 (1:1000) was used to stain neurons. Goat anti rat conjugated to rhodamine and goat anti-mouse conjugated to FITC (1:500) were used as secondary. Pictures were captured with a confocal microscope.

IKKα [9] = assay: IKKα kinase assay on IKKα complexes devoid of IKKβ from MESC2.10 neurons; assay type: cell-based, human; details: longer treatment with 10 μM etoposide
Experimental: as §2
To determine whether DNA damage influences IKKα activity, IKKα complexes devoid of IKKβ was obtained. Neuronal extracts were depleted by prior incubation with anti-IKKγ and anti-IKKβ antibodies, and IKKα complexes were subsequently immunoprecipitated.

caspase-6 [10] = molecular target: T3, caspase-6 (Homo sapiens, UniProt P55212); assay type: cell-based; details: MESC2.10 neurons, 6 hrs of etoposide treatment, western blot
T3 construct: endogenous in cells; host or cells: differentiated MESC2.10 human neurons (lysates)
T3 sequence (P55212 1-293): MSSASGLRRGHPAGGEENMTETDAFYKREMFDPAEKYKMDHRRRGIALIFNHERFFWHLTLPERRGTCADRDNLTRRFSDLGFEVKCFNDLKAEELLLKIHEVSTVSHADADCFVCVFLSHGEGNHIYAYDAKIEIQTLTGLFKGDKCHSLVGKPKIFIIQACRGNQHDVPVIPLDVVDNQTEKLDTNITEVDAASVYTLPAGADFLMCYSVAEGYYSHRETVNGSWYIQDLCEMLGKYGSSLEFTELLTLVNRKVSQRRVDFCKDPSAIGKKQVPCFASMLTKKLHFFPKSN

Ac-DEVD-CHO
effect on etoposide-induced Htt proteolysis (endogenous Htt): reduced Htt proteolysis

IGF-1: insulin-like growth factor-1, IKKα activator
activation of IKKα (IKKα [1]): activates IKKα

arsenite
IKKβ activation (IKKβ): potently inhibited IKKβ activation

O=C([O-])c1ccccc1O.[Na+] [sodium salicylate]
caspase-3 activity in neuronal extracts (caspase-3 [2]): lowered the etoposide-induced activation of caspases
effect on etoposide-induced reduction of Bcl-xL (Bcl-xL [3]): prevented
caspase-6 activity in neuronal extracts (caspase-6 [4]): lowered the etoposide-induced activation of caspases
effect on etoposide-induced Htt proteolysis (endogenous Htt): blocks etoposide-induced Htt proteolysis
effect on etoposide-induced reduction of Bcl-xL (Bcl-xL [5]; MESC2.10 neurons pre-treated or transduced, then etoposide): did not affect Bcl-xL
effect on Htt cleavage induced by γ-irradiation (Htt): blocked Htt cleavage
phosphorylation of Bcl-xL by IKKβ (recombinant IKKβ): prevented the reaction

COc1cc([C@@H]2c3cc4c(cc3[C@@H](O[C@@H]3O[C@@H]5CO[C@@H](C)O[C@H]5[C@H](O)[C@H]3O)[C@H]3COC(=O)[C@H]23)OCO4)cc(OC)c1O [etoposide]
p65 NF-κB DNA binding activity (p65 NF-κB): activated p65 NF-κB DNA binding
cleavage of full-length mutant Htt caused by the agent [6]: promoted cleavage of full-length, mutant Htt protein
nuclear p53 (p53): accumulates in the nucleus
procaspase-3 level / activation (caspase-3 [7]): reduced
caspase-3 activity in neuronal extracts (caspase-3 [2]): elevated
level of IKKα protein after etoposide treatment (IKKα [8]): decrease
cell cycle activation measured by BrdU incorporation (MESC2.10 neurons): promotes cell cycle activation
IKKα kinase activity after etoposide treatment (IKKα [9]): reduces IKKα activity
caspase-6 activity in neuronal extracts (caspase-6 [4]): elevated
procaspase-6 level / activation (caspase-6 [10]): reduced
increase of the level of endogenous, full-length Htt (endogenous Htt; MESC2.10 neurons, 10 μM etoposide, early time points): ~4 fold
time required for maximal Htt proteolysis (endogenous Htt; MESC2.10 neurons, etoposide): ~6 h
proteolysis of endogenous Htt caused by the agent (endogenous Htt; MESC2.10 neurons, longer exposure to 10 μM etoposide): induces proteolysis of endogenous Htt
level of intact Bcl-xL after etoposide (Bcl-xL [5]; MESC2.10 neurons, etoposide 6 hours): reduced

Ac-VEID-aldehyde
effect on etoposide-induced Htt proteolysis (endogenous Htt): no significant effect
